Reference: patent publication US8933075B2, “Compounds useful as antiviral agents, compositions, and methods of use” (priority 2010, dated 2015)

Columns and labels:
[1] = system: influenza viruses that have HA subtypes H1 and H2; settings: cited from earlier work
[2] = system: influenza viruses that have HA subtype H3; settings: cited from earlier work
pseudoHIV particles = test: HIV pseudovirus assay in X4 cells (luciferase); type: cell-based, HIV-1; settings: Human immunodeficiency virus 1, read-out: HIV EC50
Description: A plasmid coding the HIV-1 genome, deleting the envelope protein gene and with a luciferase gene inserted, and a plasmid coding the envelope protein gene were cotransfected into 293T cells. After 48 hr, the supernatant containing pseudoHlV particles was collected for transducing assay. In 96 well plates, X4 cells were plated and incubated till confluent. The pseudoHlV particles were incubated with various concentrations of inhibitor compounds for one hour in room temperature. The particles were then used for tranducing X4 cells. The transduced X4 cells were lysed after 48 hr and the luciferase activity was measured in a luminometer.

A/Udorn/72 (H3N2) virus = test: Plaque assay in MDCK cells: EC50 by reduction of plaque number; type: cell-based, influenza virus; settings: MDCK
influenza virus = settings: cited from earlier work
H1 and H2 viruses = settings: cited from earlier work
H3 viruses = settings: cited from earlier work

Compound: C[C@@H]1CCC[C@@H]2C[C@@H](NC(=O)c3cc(Cl)c(N)cc3O)CCN21 [BMY-27709]
- EC50 [1]: 6000 to 8000 nM
- activity against H3 [2]: not H3

Compound: COc1cc(OC)cc(-c2cc(CCCCO)c(/C=C3\SC(=S)N(C4CC5CCC4C5)C3=O)o2)c1 (centres unmarked) [Compound 113]
- EC50 (pseudoHIV particles): < 100 nM
- EC50 (A/Udorn/72 (H3N2) virus): < 100 nM

Compound: COc1cc(OC)cc(-c2cc(CCCCO)c(/C=C3\SC(=S)N(C4C5CC6CC(C5)CC4C6)C3=O)o2)c1 (centres unmarked) [Compound 114]
- EC50 (pseudoHIV particles): < 100 nM
- EC50 (A/Udorn/72 (H3N2) virus): < 100 nM

Compound: COc1cc(OC)cc(-c2cc(CCCN)c(/C=C3\SC(=S)N(C4CC5CCC4C5)C3=O)o2)c1 (centres unmarked) [Compound 120]
- EC50 (pseudoHIV particles): < 100 nM
- EC50 (A/Udorn/72 (H3N2) virus): < 100 nM

Compound: COc1cc(OC)cc(-c2cc(CCCN)c(/C=C3\SC(=S)N(C4C5CC6CC(C5)CC4C6)C3=O)o2)c1 (centres unmarked) [Compound 121]
- EC50 (pseudoHIV particles): < 100 nM
- EC50 (A/Udorn/72 (H3N2) virus): < 100 nM

Compound: COc1cc(O)cc(-c2cc(CCCN)c(/C=C3\SC(=S)N(C4CC5CCC4C5)C3=O)o2)c1 (centres unmarked) [Compound 122]
- EC50 (pseudoHIV particles): < 100 nM
- EC50 (A/Udorn/72 (H3N2) virus): < 100 nM

Compound: COc1cc(O)cc(-c2cc(CCCN)c(/C=C3\SC(=S)N(C4C5CC6CC(C5)CC4C6)C3=O)o2)c1 (centres unmarked) [Compound 123]
- EC50 (pseudoHIV particles): < 100 nM
- EC50 (A/Udorn/72 (H3N2) virus): < 100 nM

Compound: NCCCc1cc(-c2ccc(Cl)cc2)oc1/C=C1\SC(=S)N(C2CC3CCC2C3)C1=O (centres unmarked) [Compound 124]
- EC50 (pseudoHIV particles): < 100 nM
- EC50 (A/Udorn/72 (H3N2) virus): < 100 nM

Compound: NCCCc1cc(-c2ccc(Cl)cc2)oc1/C=C1\SC(=S)N(C2C3CC4CC(C3)CC2C4)C1=O (centres unmarked) [Compound 125]
- EC50 (pseudoHIV particles): < 100 nM
- EC50 (A/Udorn/72 (H3N2) virus): < 100 nM

Compound: COc1cc(OC)cc(-c2cc(CCC(=O)O)c(/C=C3\SC(=S)N(C4C5CC6CC(C5)CC4C6)C3=O)o2)c1 (centres unmarked) [Compound 129]
- EC50 (pseudoHIV particles): < 100 nM
- EC50 (A/Udorn/72 (H3N2) virus): < 100 nM

Compound: COc1cc(OC)cc(-c2cc(/C=C/C(=O)O)c(/C=C3\SC(=S)N(C4CC5CCC4C5)C3=O)o2)c1 (centres unmarked) [Compound 130]
- EC50 (pseudoHIV particles): < 100 nM
- EC50 (A/Udorn/72 (H3N2) virus): < 100 nM

Compound: COc1cc(OC)cc(-c2cc(CCCOC(=O)[C@H](CC(N)=O)NC(=O)OC(C)(C)C)c(/C=C3\SC(=S)N(C4CC5CCC4C5)C3=O)o2)c1 (some centres unmarked) [Compound 138]
- EC50 (pseudoHIV particles): < 100 nM
- EC50 (A/Udorn/72 (H3N2) virus): < 100 nM

Compound: COc1cc(OC)cc(-c2cc(CCCOC(=O)[C@@H](N)Cc3ccc(O)cc3)c(/C=C3\SC(=S)N(C4CC5CCC4C5)C3=O)o2)c1 (some centres unmarked) [Compound 151]
- EC50 (pseudoHIV particles): < 100 nM
- EC50 (A/Udorn/72 (H3N2) virus): < 100 nM

Compound: COc1cc(OC)cc(-c2cc(CCCNC(=O)[C@H](CC(N)=O)NC(=O)OC(C)(C)C)c(/C=C3\SC(=S)N(C4CC5CCC4C5)C3=O)o2)c1 (some centres unmarked) [Compound 156]
- EC50 (pseudoHIV particles): < 100 nM
- EC50 (A/Udorn/72 (H3N2) virus): < 100 nM

Compound: COc1cc(OC)cc(-c2cc(CCCNC(=O)[C@H](Cc3ccccc3)NC(=O)OC(C)(C)C)c(/C=C3\SC(=S)N(C4CC5CCC4C5)C3=O)o2)c1 (some centres unmarked) [Compound 157]
- EC50 (pseudoHIV particles): < 100 nM
- EC50 (A/Udorn/72 (H3N2) virus): < 100 nM

Compound: COc1cc(OC)cc(-c2cc(CCCNC(=O)[C@@H](N)Cc3ccc(O)cc3)c(/C=C3\SC(=S)N(C4CC5CCC4C5)C3=O)o2)c1 (some centres unmarked) [Compound 167]
- EC50 (pseudoHIV particles): < 100 nM
- EC50 (A/Udorn/72 (H3N2) virus): < 100 nM

Compound: COc1cc(OC)cc(-c2cc(CCCNC(=O)[C@@H](N)CC(N)=O)c(/C=C3\SC(=S)N(C4CC5CCC4C5)C3=O)o2)c1 (some centres unmarked) [Compound 168]
- EC50 (pseudoHIV particles): < 100 nM
- EC50 (A/Udorn/72 (H3N2) virus): < 100 nM

Compound: COc1cc(OC)cc(-c2cc(CCCNC(=O)[C@@H](N)c3ccccc3)c(/C=C3\SC(=S)N(C4CC5CCC4C5)C3=O)o2)c1 (some centres unmarked) [Compound 170]
- EC50 (pseudoHIV particles): < 100 nM
- EC50 (A/Udorn/72 (H3N2) virus): < 100 nM

Compound: COc1cc(OC)cc(-c2cc(CCCNC(=O)[C@@H](N)Cc3ccccc3)c(/C=C3\SC(=S)N(C4CC5CCC4C5)C3=O)o2)c1 (some centres unmarked) [Compound 171]
- EC50 (pseudoHIV particles): < 100 nM
- EC50 (A/Udorn/72 (H3N2) virus): < 100 nM

Compound: COc1cc(O)cc(-c2cc(CCCNC(=O)[C@@H](N)CC(N)=O)c(/C=C3\SC(=S)N(C4CC5CCC4C5)C3=O)o2)c1 (some centres unmarked) [Compound 174]
- EC50 (pseudoHIV particles): < 100 nM
- EC50 (A/Udorn/72 (H3N2) virus): < 100 nM

Compound: O=C1/C(=C/c2oc(-c3ccc(Cl)cc3)cc2CCCN2CCNCC2)SC(=S)N1C1CC2CCC1C2 (centres unmarked) [Compound 186]
- EC50 (pseudoHIV particles): < 100 nM
- EC50 (A/Udorn/72 (H3N2) virus): < 100 nM

Compound: COc1cc(O)cc(-c2cc(CCCNC(=N)N)c(/C=C3\SC(=S)N(C4CC5CCC4C5)C3=O)o2)c1 (centres unmarked) [Compound 194]
- EC50 (pseudoHIV particles): < 100 nM
- EC50 (A/Udorn/72 (H3N2) virus): < 100 nM

Compound: COc1cc(OC)cc(-c2cc(CCCNC(=N)N)c(/C=C3\SC(=S)N(C4CC5CCC4C5)C3=O)o2)c1 (centres unmarked) [Compound 195]
- EC50 (pseudoHIV particles): < 100 nM
- EC50 (A/Udorn/72 (H3N2) virus): < 100 nM

Compound: COc1cc(OC)cc(-c2cc(CCCn3nnc(CO)c3CO)c(/C=C3\SC(=S)N(C4CC5CCC4C5)C3=O)o2)c1 (centres unmarked) [Compound 200, (Z)-3-(bicyclo[2.2.1]heptan-2-yl)-5-((3-(3-(4′,5′-bis(hydroxymethyl)-1H-1′,2′,3′-triazol-1-yl)propyl)-5-(3′,5′-dimethoxyphenyl)furan-2-yl)methylene)-2-thioxothiazolidin-4-one]
- EC50 (pseudoHIV particles): < 100 nM
- EC50 (A/Udorn/72 (H3N2) virus): < 100 nM

Compound: COc1cc(OC)cc(-c2cc(CCCn3nnc(CO)c3CO)c(/C=C3\SC(=S)N(C4C5CC6CC(C5)CC4C6)C3=O)o2)c1 (centres unmarked) [Compound 201, (Z)-3-(adamantan-2-yl)-5-((3-(3-(4′,5′-bis(hydroxymethyl)-1H-1′,2′,3′-triazol-1-yl)propyl)-5-(3′,5′-dimetho-xyphenyl)furan-2-yl)methylene)-2-thioxothiazolidin-4-one]
- EC50 (pseudoHIV particles): < 100 nM
- EC50 (A/Udorn/72 (H3N2) virus): < 100 nM

Compound: OC(CCN1CCCCC1)(c1ccccc1)C1C2CC3C(C2)C31 (centres unmarked) [Triperiden]
- concentration inhibiting influenza virus replication (influenza virus): 20 µg/mL

Compound: Stachyflin
- EC50 (H1 and H2 viruses): μM range
- activity against H3 viruses (H3 viruses): not H3
